Calls of active or inactive are those of the source. No cut-off for these calls is given here.
Key:
[1] = system: Radical scavenging activity; assay: Antioxidant activity assessed as DPPH radical scavenging activity at 100 uM after 60 mins by spectrophotometric analysis; assay type: functional
[2] = Inhibition of soybean LOX using sodium linoleate as substrate by spectrophotometric analysis; set-up: species or system Glycine max
Rattus norvegicus [3] = assay: Toxicity against Fischer-344 rat up to 0.1 mmol/kg, ip; assay type: organism-based; conditions: in vivo
[4] = Antioxidant activity assessed as inhibition of AAPH-induced linoleic acid lipid peroxidation at 100 uM by spectrophotometric analysis; assay type: functional
[5] = system: Radical scavenging activity; assay: Antioxidant activity assessed as DPPH radical scavenging activity at 100 uM after 20 mins by spectrophotometric analysis; assay type: functional
[6] = Cytotoxicity against human 1BR3 cells assessed as cell viability at 50 uM after 24 hrs by MTT assay; assay type: cell-based; conditions: read-out: Activity
[7] = Cytotoxicity against human 1BR3 cells assessed as cell viability at 1 uM after 24 hrs by MTT assay; assay type: cell-based; conditions: read-out: Activity
[8] = Cytotoxicity against human 1BR3 cells assessed as cell viability at 20 uM after 24 hrs by MTT assay; assay type: cell-based; conditions: read-out: Activity
[9] = Cytotoxicity against human 1BR3 cells assessed as cell viability at 10 uM after 24 hrs by MTT assay; assay type: cell-based; conditions: read-out: Activity
Rattus norvegicus [10] = assay: Antiinflammatory activity in Fischer-344 rat assessed as inhibition of carrageenan-induced paw edema at 0.01 mmol/kg, ip after 3.5 hrs relative to control; assay type: functional; conditions: Fischer-344, ip
[11] = Cytotoxicity against human 1BR3 cells assessed as cell viability at 100 uM after 24 hrs by MTT assay; assay type: cell-based; conditions: read-out: Activity
Glycine max = assay: Inhibition of soybean LOX using sodium linoleate as substrate at 100 uM by spectrophotometric analysis

SMILES	Activity [1]	IC50 [2]	Activity (Rattus norvegicus [3])	inhibition [4]	Activity [5]	IC50 ([2]; read-out: IC50)	viability at 24 h, 50 µM [6]	viability at 24 h, 1 µM [7]	viability at 24 h, 20 µM [8]	viability at 24 h, 10 µM [9]	inhibition in vivo at 10 µmol/kg (Rattus norvegicus [10])	viability at 24 h, 100 µM [11]	inhibition (Glycine max)
COc1c2occc2c(/C=C/C(=O)OC(C)(C)C)c2ccc(=O)oc12	3%	Not Active	Non-toxic	89%	3%	–	–	–	–	–	–	–	–
Cc1oc2c(C)c3oc(=O)cc(C)c3cc2c1-c1ccc(C(=O)O)cc1	inactive	Not Active	Non-toxic	80%	inactive	–	–	–	–	–	–	–	–
CCCCOC(=O)/C=C/c1c2ccoc2c(OC)c2oc(=O)ccc12	7%	–	Non-toxic	79%	5%	6 µM	98.9%	96.7%	99.6%	99.3%	57%	90.3%	–
Cc1cc2cc3c(C)cc(=O)oc3c(C)c2o1 [TRIOXSALEN]	inactive	–	–	inactive	inactive	–	92.2%	107%	95.2%	96.7%	–	95.2%	40%
Cc1oc2c(C)c3oc(=O)cc(C)c3cc2c1Br	100%	Not Active	–	35%	inactive	–	–	–	–	–	–	–	–
Cc1c(C)c2c(c(C)c1O)CCC(C)(C(=O)O)O2 (stereo not drawn)	–	–	–	63%	–	–	–	–	–	–	–	–	–
COc1c2occc2c(/C=C/C(=O)O)c2ccc(=O)oc12	7%	–	Non-toxic	62%	7%	50 µM	–	–	–	–	–	–	–
Cc1oc2c(C)c3oc(=O)cc(C)c3cc2c1-c1ccc(/C=C/C(=O)OC(C)(C)C)cc1	inactive	–	Non-toxic	41%	inactive	–	–	–	–	–	–	–	33%
CC(Cc1ccc(O)c(O)c1)C(C)Cc1ccc(O)c(O)c1 (stereo not drawn)	83%	–	–	–	81%	–	–	–	–	–	–	–	–
O=c1ccc2cc3ccoc3c(O)c2o1 [XANTHOTOXOL]	22%	–	–	5%	25%	89 µM	–	–	–	–	–	–	–
COc1c2occc2cc2ccc(=O)oc12 [METHOXSALEN]	16%	–	–	5%	16%	50 µM	92%	101%	96.7%	98.1%	–	89.6%	–
O=c1ccc2c(O)c3ccoc3c(Br)c2o1	56%	–	–	81%	20%	30.5 µM	91.6%	97%	95.2%	92.8%	–	91%	–
COc1c2occc2c(-c2ccc(C(=O)O)cc2)c2ccc(=O)oc12	15%	Not Active	Non-toxic	100%	11%	–	–	–	–	–	–	–	–
CC(=O)c1c(C)oc2c(C)c3oc(=O)cc(C)c3cc12	14%	–	–	67%	14%	79 µM	–	–	–	–	–	–	–
COc1c2occc2c(/C=C/C(=O)OCc2cccc(Oc3ccccc3)c2)c2ccc(=O)oc12	9%	–	Non-toxic	89%	7%	55 µM	–	–	–	–	–	–	–
COc1c2ccoc2c(/C=C/C(=O)OC(C)(C)C)c2oc(=O)ccc12	inactive	Not Active	Non-toxic	79%	inactive	–	–	–	–	–	–	–	–
COc1c2ccoc2c(-c2ccc(/C=C/C(=O)O)cc2)c2oc(=O)ccc12	28%	–	Non-toxic	55%	22%	24 µM	18.5%	65.6%	24.7%	55.6%	–	13.3%	–
CCOC(=O)/C=C/c1c(C)oc2c(C)c3oc(=O)cc(C)c3cc12	60%	Not Active	Non-toxic	77%	8%	–	–	–	–	–	–	–	–

— ChEMBL document CHEMBL2311494, “Syntheses and evaluation of the antioxidant activity of novel methoxypsoralen derivatives” (Eur J Med Chem, 2013)
